Experimental data: PMC7918738, “Microtubule Destabilizing Sulfonamides as an Alternative to Taxane-Based Chemotherapy” (International Journal of Molecular Sciences, 2021)

Experiments:
[1] = tested on: OVCAR-3 ovarian carcinoma cells; set-up: method as in ref 14 (Bicaku, E. et al.); details: ref 14 (Bicaku, E. et al.); read-out: Antiproliferative Activity IC50 OVCAR-3; cited from earlier work
[2] = tested on: SKOV3 ovarian carcinoma cells; test: Antiproliferative activity against SKOV3 (MTT); type: cell-based; details: Homo sapiens, SK-OV-3, 72 h
Experimental: (§1) The in vitro antiproliferative activity of compounds 38, 42, and 45 against a panel of five human ovarian carcinoma cell lines (SKOV3, IGROV-1, A2780, OVCAR-8, and OVCAR-3) was evaluated by a colorimetric method (Table 3) and compared with paclitaxel. […] For SKOV3, the potency reduction observed for paclitaxel together with a sustained or improved (42 with a 7 nM IC50 value) potency for MDS results in a more favorable profile of the MDS compared to paclitaxel.
(§2) MCF7 (human breast carcinoma), SKOV-3 (human ovarian carcinoma), OVCAR-3 (human ovarian carcinoma), OVCAR-8 (human ovarian carcinoma), and HeLa (human cervical carcinoma) cell lines were cultured in Dulbecco’s Modified Eagle’s Medium (DMEM) (Gibco, Thermo Fischer Scientific) containing 10% (v/v) heat-inactivated fetal bovine serum (HIFBS) (Lonza-Cambrex, Karlskoga, Sweden), 2 mM L-glutamine (Lonza-Cambrex, Karlskoga, Sweden), 100 μg/mL streptomycin, and 100 IU/mL penicillin (Lonza-Cambrex) at 37 °C in humidified 95% air and 5% CO2. HT-29 (human colon carcinoma), IGROV-1 (human ovarian carcinoma), and A2780 (human ovarian carcinoma) cell lines were cultured in RPMI 1640 medium (Gibco, Thermo Fischer Scientific) supplemented with 10% HIFBS, 100 μg/mL streptomycin, and 100 IU/mL penicillin at 37 °C in humidified 95% air and 5% CO2 atmosphere. The presence of mycoplasma was routinely checked with MycoAlert kit (Lonza-Cambrex) and only mycoplasma-free cells were used in the experiments. Ovarian tumor cell lines were originally acquired from Dr Atanasio Pandiella from Centro de Investigación del Cáncer (CIC), Salamanca, Spain. HeLa, HT-29 and MCF7 tumor cell lines were provided by Dr Faustino Mollinedo from Centro de Investigaciones Biológicas Margarita Salas, Madrid, Spain.
(§3) MCF7, HeLa, and HT-29 cell proliferation, when treated with the corresponding compounds, were determined using the XTT (sodium 3’-[1(phenylaminocarbonyl)-3,4-tetrazolium]-bis(4-methoxy-6-nitro)-benzenesulfonic acid hydrate) cell proliferation kit (Roche Molecular Biochemicals, Mannheim, Germany). […] The absorbance of the formazan product generated was measured at 450 nm using a multi-well plate reader. SKOV-3, OVCAR-3, OVCAR-8, IGROV-1, A-2780 cell proliferation, when treated with the corresponding compound, were determined using MTT (3-(4,5-dimethylthiazol-2-yl)-2,5-diphenyl-2H-tetrazolium bromide) (Sigma-Aldrich, St. Louis, MO, USA). […] Absorbance was measured at 570 nm in a plate reader (Ultra Evolution, Tecan, Männedorf, Suiza). […] After 24 h incubation, to allow cells to attach to the plates, all compounds were added at 1 µM concentration and the effect on the proliferation was evaluated 72 h post-treatment. […]

[3] = tested on: OVCAR-8 ovarian carcinoma cells; set-up: method as in ref 14 (Bicaku, E. et al.); details: ref 14 (Bicaku, E. et al.); read-out: Antiproliferative Activity IC50 OVCAR-8; cited from earlier work
[4] = set-up: method as in PMID 12734814, PMID 17116587, PMID 17613018; details: cited from earlier work
[5] = tested on: HeLa (cervix epithelioid carcinoma); set-up: method as in PMID 7903152; details: read-out: Antiproliferative Activity IC50 HeLa; cited from earlier work
[6] = tested on: A2780 ovarian carcinoma cells; set-up: method as in ref 14 (Bicaku, E. et al.); details: ref 14 (Bicaku, E. et al.); read-out: Antiproliferative Activity IC50 A2780; cited from earlier work
[7] = tested on: IGROV-1 ovarian carcinoma cells; test: Antiproliferative activity against IGROV-1 (MTT); type: cell-based; details: Homo sapiens, 72 h
Experimental: as §1, §2, §3

SKOV3 cells = test: Annexin V-FITC/PI cell death quantification in SKOV3; type: cell-based, human; details: SKOV3, 72 h, 38 600 nM, 42 50 nM, 45 400 nM, paclitaxel 10 nM
Experimental: To determine whether the cytotoxic/antiproliferative effect of the MDS was due to apoptosis induction, cells were treated with variable concentrations of the drug for 72 h or 6 days, stained with Annexin V-FITC (AnV) and propidium iodide (PI), and analyzed by flow cytometry. Double negative cells (AnV^−/PI^−) were classified as live cells (L), cells positive for AnV and negative for PI (AnV^+/PI^−) were considered in Early Apoptosis (EA), cells negative for AnV and positive for PI (AnV^−/PI^+) were considered necrotic (N), and double-positive cells (AnV^+/PI^+) as Late Apoptosis (LA). In all cases, the compounds were used at the same concentrations previously used in cell cycle studies (Table 5).
MCF7, SKOV-3, and HeLa apoptotic cells were quantified using an Annexin V-FITC/PI apoptosis detection kit (Immunostep, Salamanca, Spain) according to the manufacturer’s guidelines. 1.5 mL/well of cells in the exponential growth phase at 2·10^4 cells/mL were seeded onto 12-well plates and left to attach overnight. After 24 h incubation, cells were treated with selected compounds. After 72 h (MCF7, SKOV-3, and HeLa) and 6 days (MCF7) post-treatment, attached and floating cells of treated and untreated wells were collected, centrifuged, resuspended in Annexin V binding buffer, and stained with Annexin V-FITC/PI. Cells were then incubated in darkness at room temperature for 15 min and a total of 30,000 cells were acquired and analyzed using the BD Accuri™ C6 Plus Flow Cytometer and Software (version 1.0.264.21, BD Biosciences, San José, CA, USA), respectively. Compounds were dissolved in DMSO and the final solvent concentration never exceeded 0.5% (v/v). Control wells included cells with 0.5% (v/v) DMSO.

[8] = tested on: HT-29 (colon adenocarcinoma); set-up: method as in ref 52 (a number printed in a supplementary file, which may have a reference list of its own: not looked up in the article's list); details: read-out: Antiproliferative Activity IC50 HT-29; cited from earlier work
[9] = tested on: MCF7 (breast adenocarcinoma); set-up: method as in PMID 7903152; details: read-out: Antiproliferative Activity IC50 MCF7; cited from earlier work

## CC(=O)O[C@H]1C(=O)[C@@]2(C)[C@H]([C@H](OC(=O)c3ccccc3)[C@]3(O)C[C@H](OC(=O)[C@H](O)[C@@H](NC(=O)c4ccccc4)c4ccccc4)C(C)=C1C3(C)C)[C@]1(OC(C)=O)CO[C@@H]1C[C@@H]2O [Paclitaxel, reference compound]
[1]
  IC50: 17 nM
[2]
  IC50: 81 nM
[3]
  IC50: 6 nM
[4]
  Aqueous solubility: <2 µg/mL
[5]
  IC50: 2.6 nM
[6]
  IC50: 3 nM
[7]
  IC50: 39 nM
SKOV3 cells
  Annexin V-FITC/PI 72 h EA (early apoptosis): 3.8%
  Annexin V-FITC/PI 72 h LA (late apoptosis): 3.1%
  Annexin V-FITC/PI 72 h Live: 90.7%
  Annexin V-FITC/PI 72 h Necrosis: 2.4%
  Annexin V-positive SKOV3 cells: 7%
SKOV3 cells; listed as paclitaxel
  Annexin V-FITC/PI 72 h Live: 91%
[8]
  IC50: 2.8 nM
[9]
  IC50: 2.5 nM
